Measurements published in patent US10278942B2 (PELOTON THERAPEUTICS, INC., priority 2015, dated 2019).
Where two headings read alike, the source gives them in different places.

Experiments:
[1] = molecular target: T1, HIF-2α HIS TAG-PASB Domain (Homo sapiens, UniProt Q99814); experiment: HIF-2α Scintillation Proximity Assay (SPA); assay type: binding
T1 construct: 100 nM HIF-2α HIS TAG-PASB Domain
Summary of the method: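 IC50 values rest on percent inhibition, where the sample signal is scaled between high and low controls. Wells contain about 100 μL: compound dispensed as 2 μL of DMSO solution, 88 μL protein-probe mix and 10 μL of beads.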

786-O-Hif-Luc cells = experiment: Luciferase Assay (HIF responsive elements reporter)
Experimental: A pool of infected cells were then selected against 2 μg/mL of puromycin (P8833, Sigma) for 10 days followed by limited dilution to select single clones. […] Each concentration was tested in triplicate. After about 24 hours, luciferase activity was determined using ONE-Glo Luciferase Assay Reagent (E6110, Promega) following the manufacturer's recommended procedure. EC50 were calculated using Dotmatics software.

[2] = read-out: Scintillation Proximity Assay IC50
[3] = read-out: Mean Luciferase EC50 (nM), 786-O-Hif-Luc cells
[4] = Scintillation Proximity Assay IC50 (nM)

T1 sequence (Q99814 240-350 limits assumed): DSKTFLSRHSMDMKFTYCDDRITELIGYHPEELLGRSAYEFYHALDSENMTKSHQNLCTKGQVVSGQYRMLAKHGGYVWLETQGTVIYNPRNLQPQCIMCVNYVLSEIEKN

| IC50 [1, 2] [nM] | EC50 (786-O-Hif-Luc cells; [3]) [nM] | SMILES | IC50 [1, 4] [nM] | EC50 (786-O-Hif-Luc cells; read-out: Mean Luciferase EC50 (nM)) [nM] |
| --- | --- | --- | --- | --- |
| 50 to 249 | 250 to 1000 | O/N=C1/c2c(C(F)(F)F)ccc(OCC(F)F)c2[C@@H](F)C1(F)F [Compound 669] |  |  |
| 250 to 1000 | > 1000 | CS(=O)(=O)NCCOc1ccc(S(=O)(=O)C(F)(F)F)c2c1CC(F)(F)C2O (stereo not shown) [Compound 637] |  |  |
| > 1000 | > 1000 | CC(=O)N[C@H]1C[C@@H](Oc2ccc(S(=O)(=O)C(F)(F)F)c3c2CC(F)(F)[C@H]3O)C1 [Compound 725] |  |  |
| < 50 | < 50 | N#C[C@H]1C[C@H](Oc2ccc(S(=O)(=O)C(F)(F)F)c3c2CC(F)(F)[C@H]3O)C1 [Compound 786] |  |  |
| < 50 | 50 to 249 | CC1CC(Oc2ccc(S(=O)(=O)C(F)(F)F)c3c2CC(F)(F)C3O)CCO1 (stereo not shown) [Compound 623] |  |  |
| 50 to 249 | > 1000 | O=S(=O)(c1ccc(OCCO)c2c1C(O)C(F)(F)C2)C(F)(F)F (stereo not shown) [Compound 614] |  |  |
| 250 to 1000 | 250 to 1000 | O=S(=O)(c1ccc(O[C@H]2C[C@H](O)C2)c2c1C(O)C(F)(F)C2)C(F)(F)F (stereo partly shown) [Compound 644] |  |  |
| < 50 | 50 to 249 | O=S(=O)(c1ccc(O[C@H]2CCCOC2)c2c1[C@H](O)C(F)(F)C2)C(F)(F)F [Compound 731] |  |  |
| 50 to 249 | 50 to 249 | CC(C)CCOc1ccc(S(=O)(=O)C(F)(F)F)c2c1CC(F)(F)[C@H]2O [Compound 717] |  |  |
| < 50 | 250 to 1000 | CS(=O)(=O)c1ccc(OCC2CC2(F)F)c2c1[C@H](O)C(F)(F)[C@@H]2F (stereo partly shown) [Compound 756] |  |  |
| 250 to 1000 | > 1000 | N#CC1(CCOc2ccc(S(=O)(=O)C(F)(F)F)c3c2CC(F)(F)[C@H]3O)COC1 [Compound 749] |  |  |
| > 1000 | > 1000 | O=S1(=O)CCC(Oc2ccc(S(=O)(=O)C(F)(F)F)c3c2CC(F)(F)[C@H]3O)CC1 [Compound 721] |  |  |
| < 50 | > 1000 | CS(=O)(=O)c1ccc(O[C@H]2C[C@@](F)(C#N)C2)c2c1[C@H](O)C(F)(F)[C@@H]2F [Compound 739] |  |  |
| 50 to 249 | 250 to 1000 | O=S(=O)(c1ccc(OCc2ccccc2)c2c1C(O)C(F)(F)C2)C(F)(F)F (stereo not shown) [Compound 663] |  |  |
| < 50 | < 50 | CCCOc1ccc(C(F)(F)F)c2c1CC(F)(F)[C@H]2O [Compound 704] |  |  |
| 250 to 1000 | 50 to 249 | O=S(=O)(c1ccc(OCC2CC2)c2c1[C@H](O)C(F)(F)C2)C(F)F [Compound 781] |  |  |
| 250 to 1000 | > 1000 | CS(=O)(=O)c1ccc(O[C@H]2C[C@@H](O)C2)c2c1[C@H](O)C(F)(F)[C@@H]2F [Compound 735] |  |  |
| 250 to 1000 | > 1000 | O=S(=O)(c1ccc(OCCCO)c2c1C(O)C(F)(F)C2)C(F)(F)F (stereo not shown) [Compound 612] |  |  |
| 250 to 1000 | > 1000 | O=S(=O)(c1ccc(OC2CCC2)c2c1C(O)CC2)C(F)(F)F (stereo not shown) [Compound 601] |  |  |

Second part, the compound before the results:

| SMILES | IC50 [1, 2] [nM] | EC50 (786-O-Hif-Luc cells; [3]) [nM] | IC50 [1, 4] [nM] | EC50 (786-O-Hif-Luc cells; read-out: Mean Luciferase EC50 (nM)) [nM] |
| --- | --- | --- | --- | --- |
| N#Cc1cncc(-c2ccc(S(=O)(=O)C(F)(F)F)c3c2CC(F)(F)[C@H]3O)c1 [Compound 570] | > 1000 | > 1000 |  |  |
| O=S(=O)(c1ccc(Oc2cncc(Cl)c2)c2c1[C@H](O)CC2)C(F)F [Compound 3] | 250 to 1000 | 250 to 1000 |  |  |
| O=S(=O)(c1ccc(Oc2ccc(F)c(Cl)c2)c2c1[C@H](O)CC2)C(F)F [Compound 157] | 250 to 1000 | > 1000 |  |  |
| O=S1(=O)CC(O)c2c1ccc(Oc1cc(F)cc(F)c1)c2C(F)F (stereo not shown) [Compound 370] | 50 to 249 | 250 to 1000 |  |  |
| [2H]C1(O)c2c(ccc(Oc3cc(F)cc(Cl)c3)c2C(F)F)S(=O)(=O)C1(F)F (stereo not shown) [Compound 371] |  |  | < 50 | < 50 |
| CS(=O)(=O)c1ccc(Sc2cccc(C#N)c2)c2c1[C@H](O)C(F)(F)[C@@H]2F [Compound 492, 3-(((1S,3R)-2,2,3-trifluoro-1-hydroxy-(methylsulfonyl)-2,3-dihydro-1H-inden-4-yl)thio)benzonitrile] | > 1000 | > 1000 |  |  |
| O=C1c2c(S(=O)(=O)C(F)F)ccc(Oc3cncc(Cl)c3)c2CC1(F)F [Compound 182] | 250 to 1000 | > 1000 |  |  |
| O=S(=O)(c1ccc(OCC2(F)COC2)c2c1[C@H](O)C(F)(F)C2)C(F)(F)F [Compound 573] | < 50 | 50 to 249 |  |  |
| CS(=N)(=O)c1ccc(Oc2cc(F)cc(F)c2)c2c1C(O)CC2 (stereo not shown) [Compound 190] | 250 to 1000 | > 1000 |  |  |
| O=S1(=O)CC(O)c2c1ccc(Oc1cc(F)cc(Cl)c1)c2C(F)F (stereo not shown) [Compound 361] | 50 to 249 | 250 to 1000 |  |  |
| N#Cc1cc(F)cc(Oc2ccc(S(=O)(=O)C3CCC3)c3c2CC(F)(F)[C@H]3O)c1 [Compound 209] | 250 to 1000 | > 1000 |  |  |
| O=S(=O)(c1ccc(Nc2cc(F)cc(F)c2)c2c1[C@H](O)CC2)C(F)(F)F [Compound 531] | 250 to 1000 | 250 to 1000 |  |  |
| O=S(=O)(c1ccc(CC2CCCCC2)c2c1C(O)C(F)(F)C2)C(F)(F)F (stereo not shown) [Compound 509] | < 50 | > 1000 |  |  |
| O=S(=O)(c1ccc(Cc2ccccc2)c2c1C(O)C(F)(F)C2)C(F)(F)F (stereo not shown) [Compound 511] | 250 to 1000 | > 1000 |  |  |
| N#Cc1cccc(Oc2ccc(S(=O)(=O)C(F)(F)F)cc2Br)c1 [Compound 117] | 50 to 249 | > 1000 |  |  |
| O=S(=O)(c1ccc(Oc2cc(Cl)c[n+]([O-])c2)c2c1[C@H](O)C(F)(F)C2)C(F)(F)F [Compound 260] | 50 to 249 | 50 to 249 |  |  |
| N=S(=O)(c1ccc(Oc2cc(F)cc(Cl)c2)c(Br)c1Cl)C(F)(F)F (stereo not shown) [Compound 75] | 50 to 249 | > 1000 |  |  |
| O=C1CCc2c(Oc3cc(F)cc(Cl)c3)ccc(S(=O)(=O)C(F)F)c21 [Compound 18] | 50 to 249 | > 1000 |  |  |
| CS(=O)(=O)c1ccc(Oc2cc(F)cc(C#N)c2)c2c1[C@H](O)C(F)(Cl)C2 (stereo partly shown) [Compound 270] | 50 to 249 | 50 to 249 |  |  |
| N#CN=S1(=O)c2ccc(Oc3cc(F)cc(F)c3)c(C(F)F)c2C(O)C1(F)F (stereo not shown) [Compound 397] | < 50 | > 1000 |  |  |
| C[C@@H]1Cc2c(Oc3cc(F)cc(C#N)c3)ccc(S(C)(=O)=O)c2[C@@H]1O [Compound 301] | > 1000 | > 1000 |  |  |
| C[C@@]1(F)Cc2c(Oc3cc(F)cc(C#N)c3)ccc(S(C)(=O)=O)c2[C@@H]1O [Compound 300] | > 1000 | > 1000 |  |  |

| SMILES | IC50 [1, 2] [nM] | EC50 (786-O-Hif-Luc cells; [3]) [nM] | IC50 [1, 4] [nM] | EC50 (786-O-Hif-Luc cells; read-out: Mean Luciferase EC50 (nM)) [nM] |
| --- | --- | --- | --- | --- |
| CC1(C)C[C@H](O)C[C@@H](c2ccc(S(=O)(=O)C(F)(F)F)c3c2CC(F)(F)[C@H]3O)C1 [Compound 549] | < 50 | 50 to 249 |  |  |
| N#Cc1c(Oc2cc(F)cc(F)c2)ccc2c1C(O)C(F)S2(=O)=O (stereo not shown) [Compound 390] | > 1000 | 250 to 1000 |  |  |
| CS(=O)(=O)c1ccc(Oc2cncc(Br)c2)c2c1[C@H](O)C(F)(F)C2 [Compound 324] | 50 to 249 | 250 to 1000 |  |  |
| Cc1c(S(=O)(=O)C(F)F)ccc(Oc2cc(F)cc(C#N)c2)c1C#N [Compound 33] | 50 to 249 | > 1000 |  |  |
| O=S(=O)(c1ccc(Oc2cc(Cl)cc(Cl)c2)c(Br)c1)C(F)(F)F [Compound 172] | 250 to 1000 | > 1000 |  |  |
| O=S(=O)(c1ccc(Oc2cccc3[nH]ncc23)c2c1[C@H](O)C(F)(F)C2)C(F)(F)F [Compound 263] | < 50 | 250 to 1000 |  |  |
| CS(=O)(=O)c1ccc(Sc2cc(F)cc(Cl)c2)c2c1[C@H](O)C(F)(F)[C@@H]2F [Compound 491, (1S,3R)-4-((3-chloro-5-fluorophenyl)thio)-2,2,3-trifluoro-7-(methylsulfonyl)-2,3-dihydro-1H-inden-1-ol] | < 50 | > 1000 |  |  |
| N#Cc1cc(F)cc(Oc2ccc(S(=O)(=O)C(F)F)c(C#N)c2Cl)c1 [Compound 39] | 50 to 249 | 250 to 1000 |  |  |
| NCc1c(S(=O)(=O)C(F)F)ccc(Oc2cc(F)cc(Cl)c2)c1Br [Compound 85] |  | > 1000 | > 1000 |  |
| CS(=O)(=O)c1ccc(Oc2cc(F)cc(C#N)c2)c2c1[C@H](O)C[C@@H]2F [Compound 295] | 50 to 249 | 250 to 1000 |  |  |
| O=S(=O)(c1ccc(-c2cccc(Cl)c2)c2c1[C@H](O)C(F)(F)C2)C(F)(F)F [Compound 485, (S)-4-(3-chlorophenyl)-2,2-difluoro-7-((trifluoromethyl)sulfonyl)-2,3-dihydro-1H-inden-1-ol] | < 50 | > 1000 |  |  |
| N#Cc1cc(Oc2ccc(S(=O)(=O)C(F)F)c3c2CC(F)(F)[C@H]3O)ccc1F [Compound 200] | < 50 | 50 to 249 |  |  |
| N#Cc1cncc(Oc2ccc(S(=O)(=O)C(F)(F)F)c3c2CCC3O)c1 (stereo not shown) [Compound 220] | 250 to 1000 | > 1000 |  |  |
| CS(=O)(=O)c1ccc(Oc2cc(F)cc(F)c2)c(C(F)F)c1C#N [Compound 93] | 50 to 249 | 250 to 1000 |  |  |
| O=S(=O)(c1ccc(Oc2cc(F)c(F)c3[nH]ncc23)c2c1C(O)C(F)(F)C2)C(F)(F)F (stereo not shown) [Compound 261] | 250 to 1000 | > 1000 |  |  |
| O/N=C1/c2c(C(F)(F)F)ccc(OCC(F)F)c2CC1(F)F [Compound 580] | 250 to 1000 | > 1000 |  |  |
| CS(=O)(=O)c1ccc(Oc2cc(C#N)cc(C(F)F)c2)c2c1C(O)CC2 (stereo not shown) [Compound 249] | 250 to 1000 | > 1000 |  |  |
| O=S(=O)(CF)c1ccc(Oc2cncc(Cl)c2)c2c1[C@H](O)C(F)(F)C2 [Compound 187] | 50 to 249 | 50 to 249 |  |  |
| O=S(=O)(c1ccc(C2CC2)c2c1C(O)C(F)(F)C2)C(F)(F)F (stereo not shown) [Compound 513] | 250 to 1000 | > 1000 |  |  |
| CS(=O)(=O)c1ccc(Oc2cc(F)cc(C#N)c2)c2c1[C@H](O)C(F)(F)[C@@H]2O [Compound 312] | 50 to 249 | 250 to 1000 |  |  |
| COc1c(Oc2cc(F)cc(C#N)c2)ccc2c1C(O)C(F)(F)S2(=O)=O (stereo not shown) [Compound 433] | 250 to 1000 | > 1000 |  |  |
